The values below come from EP1285920A1, “C10 Ester sustituted taxanes as antitumor agents” (Florida State University Research Foundation, Inc., priority 2001, dated 2003).

In the experiment the test system is HCT116. The experiment is described as follows: In Vitro cytotoxicity measured by the cell colony formation assay. The experiment is classed as cell-based, human. The following applies: Homo sapiens, HCT-116; read-out: IN VITRO ID 50 HCT116. How it is done:
Four hundred cells (HCT116) were plated in 60 mm Petri dishes containing 2.7 mL of medium (modified McCoy's 5a medium containing 10% fetal bovine serum and 100 units/mL penicillin and […] streptomycin). The cells were incubated in a CO2 incubator at 37 °C for 5 h for attachment to the bottom of Petri dishes. The compounds identified in Example 2 were made up fresh in medium at ten times the final concentration, and then 0.3 mL of this stock solution was added to the 2.7 mL of medium in the dish. The cells were then incubated with drugs for 72 h at 37 °C. At the end of incubation the drug-containing media were decanted, the dishes were rinsed with 4 mL of Hank's Balance Salt Solution (HBSS), 5 mL of fresh medium was added, and the dishes were returned to the incubator for colony formation. The cell colonies were counted using a colony counter after incubation for 7 days.
Turning to `CCC(=O)OC1C(=O)C2(C)C(O)CC3OCC3(OC(C)=O)C2C(OC(=O)c2ccccc2)C2(O)CC(OC(=O)C(O)C(C=C(C)C)NC(=O)OCC(C)C)C(C)=C1C2(C)C` (stereo not shown) [Compound 5065], the IC50 was less than 10 nM.
Consider `CC(=O)O[C@@]12CO[C@@H]1C[C@H](O)[C@@]1(C)C(=O)[C@H](OC(=O)C3CC3)C3=C(C)[C@@H](OC(=O)[C@H](O)[C@@H](NC(=O)c4cccs4)c4cccs4)C[C@@](O)([C@@H](OC(=O)c4ccccc4)[C@H]21)C3(C)C` [Compound 3453], for which the IC50 was less than 1 nM.
Next, `CCC(=O)O[C@H]1C(=O)[C@@]2(C)[C@H]([C@H](OC(=O)c3ccccc3)[C@]3(O)C[C@H](OC(=O)[C@H](O)[C@@H](NC(=O)OC(C)(C)C)c4cccnc4)C(C)=C1C3(C)C)[C@]1(OC(C)=O)CO[C@@H]1C[C@@H]2O` [Compound 0517]: less than 10 nM; `CCC(=O)O[C@H]1C(=O)[C@@]2(C)[C@H]([C@H](OC(=O)c3ccccc3)[C@]3(O)C[C@H](OC(=O)[C@H](O)[C@@H](NC(=O)OC(C)(C)C)C(C)C)C(C)=C1C3(C)C)[C@]1(OC(C)=O)CO[C@@H]1C[C@@H]2O` [Compound 0583]: less than 10 nM.
Next, `CCC(=O)O[C@H]1C(=O)[C@@]2(C)[C@H]([C@H](OC(=O)c3ccccc3)[C@]3(O)C[C@H](OC(=O)[C@H](O)[C@@H](NC(=O)OC(C)(C)C)C4CC4)C(C)=C1C3(C)C)[C@]1(OC(C)=O)CO[C@@H]1C[C@@H]2O` [Compound 0578]: less than 1 nM; `CCC(=O)O[C@H]1C(=O)[C@@]2(C)[C@H]([C@H](OC(=O)c3ccccc3)[C@]3(O)C[C@H](OC(=O)[C@H](O)[C@@H](NC(=O)C=C(C)C)c4cccs4)C(C)=C1C3(C)C)[C@]1(OC(C)=O)CO[C@@H]1C[C@@H]2O` [Compound 4335]: less than 1 nM.
In the case of `C/C=C/C(=O)N[C@@H](c1ccoc1)[C@@H](O)C(=O)O[C@H]1C[C@@]2(O)[C@@H](OC(=O)c3ccccc3)[C@@H]3[C@]4(OC(C)=O)CO[C@@H]4C[C@H](O)[C@@]3(C)C(=O)[C@H](OC(=O)CCC)C(=C1C)C2(C)C` [Compound 4919], the IC50 was less than 1 nM.
The value for `CC(=O)O[C@@]12CO[C@@H]1C[C@H](O)[C@@]1(C)C(=O)[C@H](OC(=O)C3CC3)C3=C(C)[C@@H](OC(=O)[C@H](O)[C@@H](NC(=O)c4ccccc4)c4ccc([N+](=O)[O-])cc4)C[C@@](O)([C@@H](OC(=O)c4ccccc4)[C@H]21)C3(C)C` [Compound 2869] was less than 10 nM; that for `CC(=O)OC12COC1CC(O)C1(C)C(=O)C(OC(=O)C3CC3)C3=C(C)C(OC(=O)C(O)C(NC(=O)OCC(C)C)c4ccsc4)CC(O)(C(OC(=O)c4ccccc4)C21)C3(C)C` (stereo not shown) [Compound 5011] was less than 10 nM.
The value for `CC(=O)O[C@@]12CO[C@@H]1C[C@H](O)[C@@]1(C)C(=O)[C@H](OC(=O)c3cccs3)C3=C(C)[C@@H](OC(=O)[C@H](O)[C@@H](NC(=O)OC(C)(C)C)c4ccncc4)C[C@@](O)([C@@H](OC(=O)c4ccccc4)[C@H]21)C3(C)C` [Compound 1954] was less than 1 nM; that for `CC=CC(=O)NC(c1ccsc1)C(O)C(=O)OC1CC2(O)C(OC(=O)c3ccccc3)C3C4(OC(C)=O)COC4CC(O)C3(C)C(=O)C(OC(=O)C3CC3)C(=C1C)C2(C)C` (stereo not shown) [Compound 5040] was less than 1 nM; that for `CCOC(=O)N[C@@H](c1cccs1)[C@@H](O)C(=O)O[C@H]1C[C@@]2(O)[C@@H](OC(=O)c3ccccc3)[C@@H]3[C@]4(OC(C)=O)CO[C@@H]4C[C@H](O)[C@@]3(C)C(=O)[C@H](OC(=O)CC)C(=C1C)C2(C)C` [Compound 3370] was less than 1 nM.
Next, `CC(=O)OC12COC1CC(O)C1(C)C(=O)C(OC(=O)C(C)C)C3=C(C)C(OC(=O)C(O)C(NC(=O)OC(C)(C)C)C(C)C)CC(O)(C(OC(=O)c4ccccc4)C21)C3(C)C` (stereo not shown) [Compound 2306]: less than 10 nM; `CCC(=O)OC1C(=O)C2(C)C(O)CC3OCC3(OC(C)=O)C2C(OC(=O)c2ccccc2)C2(O)CC(OC(=O)C(O)C(NC(=O)OC(C)(C)CC)c3ccco3)C(C)=C1C2(C)C` (stereo not shown) [Compound 6522]: less than 1 nM.
For `CC(=O)O[C@@]12CO[C@@H]1C[C@H](O)[C@@]1(C)C(=O)[C@H](OC(=O)C3CC3)C3=C(C)[C@@H](OC(=O)[C@H](O)[C@H](C=C(C)C)NC(=O)OCC(C)C)C[C@@](O)([C@@H](OC(=O)c4ccccc4)[C@H]21)C3(C)C` [Compound 4720], the IC50 was less than 10 nM.
Next, `CC(=O)O[C@@]12CO[C@@H]1C[C@H](O)[C@@]1(C)C(=O)[C@H](OC(=O)C3CC3)C3=C(C)[C@@H](OC(=O)[C@H](O)[C@@H](NC(=O)OCC(C)C)c4ccoc4)C[C@@](O)([C@@H](OC(=O)c4ccccc4)[C@H]21)C3(C)C` [Compound 4665]: less than 10 nM; `CCC(=O)O[C@H]1C(=O)[C@@]2(C)[C@H]([C@H](OC(=O)c3ccccc3)[C@]3(O)C[C@H](OC(=O)[C@H](O)[C@@H](NC(=O)c4ccccc4)c4ccccn4)C(C)=C1C3(C)C)[C@]1(OC(C)=O)CO[C@@H]1C[C@@H]2O` [Compound 0634]: less than 10 nM; `CCC(=O)O[C@H]1C(=O)[C@@]2(C)[C@H]([C@H](OC(=O)c3ccccc3)[C@]3(O)C[C@H](OC(=O)[C@H](O)[C@@H](NC(=O)c4ccccc4)C(C)C)C(C)=C1C3(C)C)[C@]1(OC(C)=O)CO[C@@H]1C[C@@H]2O` [Compound 0719]: less than 10 nM.
Next, `CCC(=O)O[C@H]1C(=O)[C@@]2(C)[C@H]([C@H](OC(=O)c3ccccc3)[C@]3(O)C[C@H](OC(=O)[C@H](O)[C@@H](NC(=O)c4ccccc4)c4ccsc4)C(C)=C1C3(C)C)[C@]1(OC(C)=O)CO[C@@H]1C[C@@H]2O` [Compound 0691]: less than 1 nM; `CCC(=O)O[C@H]1C(=O)[C@@]2(C)[C@H]([C@H](OC(=O)c3ccccc3)[C@]3(O)C[C@H](OC(=O)[C@H](O)[C@@H](NC(=O)c4ccccc4)c4ccncc4)C(C)=C1C3(C)C)[C@]1(OC(C)=O)CO[C@@H]1C[C@@H]2O` [Compound 0659]: less than 1 nM.
Next, `C/C=C/C(=O)N[C@@H](c1ccco1)[C@@H](O)C(=O)O[C@H]1C[C@@]2(O)[C@@H](OC(=O)c3ccccc3)[C@@H]3[C@]4(OC(C)=O)CO[C@@H]4C[C@H](O)[C@@]3(C)C(=O)[C@H](OC(=O)C3CC3)C(=C1C)C2(C)C` [Compound 3971]: less than 1 nM.
With `CCCC(=O)O[C@H]1C(=O)[C@@]2(C)[C@H]([C@H](OC(=O)c3ccccc3)[C@]3(O)C[C@H](OC(=O)[C@H](O)[C@@H](NC(=O)OCC(C)C)c4cccs4)C(C)=C1C3(C)C)[C@]1(OC(C)=O)CO[C@@H]1C[C@@H]2O` [Compound 3265], the IC50 was less than 10 nM.
Consider `CC(=O)O[C@@]12CO[C@@H]1C[C@H](O)[C@@]1(C)C(=O)[C@H](OC(=O)c3ccco3)C3=C(C)[C@@H](OC(=O)[C@H](O)[C@@H](NC(=O)OC(C)(C)C)c4cccs4)C[C@@](O)([C@@H](OC(=O)c4ccccc4)[C@H]21)C3(C)C` [Compound 2164], for which the IC50 was less than 1 nM.
The value for `CCC(=O)O[C@H]1C(=O)[C@@]2(C)[C@H]([C@H](OC(=O)c3ccccc3)[C@]3(O)C[C@H](OC(=O)[C@H](O)[C@@H](NC(=O)OCC(C)C)C4CC4)C(C)=C1C3(C)C)[C@]1(OC(C)=O)CO[C@@H]1C[C@@H]2O` [Compound 4799] was less than 1 nM.
Turning to `CC(=O)O[C@@]12CO[C@@H]1C[C@H](O)[C@@]1(C)C(=O)[C@H](OC(=O)C3CC3)C3=C(C)[C@@H](OC(=O)[C@H](O)[C@@H](NC(=O)OC(C)C)c4ccco4)C[C@@](O)([C@@H](OC(=O)c4ccccc4)[C@H]21)C3(C)C` [Compound 3853], the IC50 is less than 1 nM.
